Assay in all cases: NCI anticancer screen, dose series, 48 h
Experiment [1] concerns ACHN.
Experiment [2] concerns COLO 205.
Experiment [3] relates to DMS-114.
In experiment [4] the test system is DMS-273.
Experiment [5] deals with HL-60.
Experiment [6] relates to M19-MEL.
Experiment [7] has as its system OVCAR-3.
For experiment [8], the system named is RXF 393.
For experiment [9], the system named is SK-MEL-28.
In experiment [10] the test system is SK-OV-3.
In experiment [11] the test system is SN12C.
Experiment [12] deals with SNB-78.
The test system of experiment [13] is SR.
Experiment [14] deals with UO-31.
Experiment [15] relates to BT-549.
The subject of experiment [16] is Hs-578T.
The subject of experiment [17] is MDA-MB-435.
For experiment [18], the system named is MDA-N.
In experiment [19] the test system is PC-3.

Data on nine molecules can be found in ChEMBL document CHEMBL1201862, “PubChem BioAssay data set” (2004).

The structures appear in SMILES notation.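 Each compound was tested at five concentrations against cells in 96-well plates for 48 hours. GI50 marks 50% less growth.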 Calls of active or inactive are those of the source. Rule as the data show it: active = GI50 up to about 1.1 µM and inactive = higher.

`N#CC(C(=O)CCCC(=O)Nc1ccccc1[N+](=O)[O-])c1c(Cl)cccc1Cl` (stereo unspecified): the GI50 in experiment [1] is > 100 µM (inactive); in experiment [2] it was > 100 µM (inactive); in experiment [3] it was > 100 µM (inactive); in [4], > 100 µM (inactive); in experiment [5], 99.1 µM (inactive); in experiment [6], > 100 µM (inactive). The GI50 in [7], in experiment [8], in experiment [9], in experiment [10], in experiment [11] and in experiment [12] was > 100 µM (inactive) throughout. The GI50 in experiment [13] and in [14] was > 100 µM (inactive) throughout.
For `Cc1ccc(C)c(N2C(=O)C(=O)C(c3nc4ccccc4s3)/C(=N/N)C2=O)c1` (stereo unspecified), the GI50 in experiment [1] was > 100 µM (inactive); in experiment [2] it was > 39.3 µM (inactive); in experiment [3] it was > 100 µM (inactive); in experiment [4], > 100 µM (inactive); in experiment [5], > 100 µM (inactive); in experiment [6], > 20.2 µM (inactive). Moreover, the GI50 in [7], in experiment [8], in experiment [9], in experiment [10], in experiment [11] and in experiment [12] was > 100 µM (inactive) each time. Further, the GI50 in [13] and in experiment [14] was > 100 µM (inactive) each time.
As for `CC1=Nc2c(O)nc(S)nc2NC(c2ccc(Cl)c(Cl)c2)C1` (stereo unspecified), the GI50 is > 65.2 µM (inactive) in experiment [1]; 18 µM (inactive) in experiment [2]; 35.6 µM (inactive) in experiment [3]; 26.1 µM (inactive) in experiment [4]; > 100 µM (inactive) in experiment [5]; 18.5 µM (inactive) in experiment [6]. In addition, the GI50 is 17.5 µM (inactive) in [7]; 17.5 µM (inactive) in experiment [8]; 18.3 µM (inactive) in [9]; 32.1 µM (inactive) in experiment [10]; 20.1 µM (inactive) in experiment [11]; 60.4 µM (inactive) in experiment [12]. Further, the GI50 is > 100 µM (inactive) in experiment [13] and 29.9 µM (inactive) in [14].
Take `Cn1cc2ccccc2c1-c1nc(F)nc(F)n1`: the GI50 in [1] is > 100 µM (inactive); in experiment [2], > 100 µM (inactive); in experiment [3], > 100 µM (inactive); in experiment [4], > 100 µM (inactive); in experiment [5], 45.5 µM (inactive); in experiment [6] it was > 100 µM (inactive). The GI50 in experiment [7], in experiment [8], in experiment [9], in experiment [10], in experiment [11] and in [12] was > 100 µM (inactive) each time. The GI50 in experiment [13] is 41.6 µM (inactive); in experiment [14] it was > 100 µM (inactive).
As for `O=C(C#Cc1ccccc1)N1c2ccccc2CC1c1c[nH]c2ccccc12` (stereo unspecified), the GI50 in [1] was 19.7 µM (inactive); in [2] it was 14.5 µM (inactive); in experiment [3], 12.7 µM (inactive); in experiment [4] it was 12.7 µM (inactive); in experiment [5], 14.7 µM (inactive); in experiment [6] it was 16.1 µM (inactive). The GI50 was 14.6 µM (inactive) in [7]; 4.48 µM (inactive) in [8]; 14.9 µM (inactive) in experiment [9]; 20.4 µM (inactive) in experiment [10]; 13 µM (inactive) in experiment [11]; 13 µM (inactive) in experiment [12]. The results for the GI50 in experiment [13] and in experiment [14] were 12.3 µM (inactive) and 23.1 µM (inactive), respectively.
Take `OCC1CC2CC1C1(C2)OCCO1` (stereo unspecified): the GI50 in experiment [1], in [2], in [3], in [4], in experiment [5] and in [6] was > 100 µM (inactive) in each case. Also, the GI50 in experiment [7], in experiment [8], in [9], in experiment [10], in [11] and in experiment [12] was > 100 µM (inactive) each time. The GI50 in experiment [13] and in [14] was > 100 µM (inactive) each time.
As to `O=Cc1[nH]c2ccccc2c1Br`, the GI50 in [1] is 26 µM (inactive); in experiment [2] it was 17.7 µM (inactive); in [3], 18.5 µM (inactive); in experiment [4] it was 17.8 µM (inactive); in experiment [5], 13.8 µM (inactive); in [6] it was 22.1 µM (inactive). Moreover, the GI50 in [7] was 21.8 µM (inactive); in [8], 25.4 µM (inactive); in [9] it was 25.1 µM (inactive); in experiment [10] it was 20.8 µM (inactive); in experiment [11], 22.6 µM (inactive); in experiment [12], 15.8 µM (inactive). The results for the GI50 in [13] and in [14] were 21.7 µM (inactive) and 30.8 µM (inactive), respectively.
Take `C1CSC(=[N+]2CC[N+](=C3SCCS3)CC2)S1`: the GI50 in experiment [1], in experiment [2], in experiment [3], in experiment [4], in experiment [5] and in experiment [6] was > 100 µM (inactive) in each case. In addition, the GI50 in [7], in experiment [8], in experiment [9], in experiment [10], in experiment [11] and in experiment [12] was > 100 µM (inactive) throughout. Besides, the GI50 in experiment [13] was 83.8 µM (inactive); in [14], > 100 µM (inactive).
Regarding `COc1ccc(CCc2cc(OC)c(OC)c(OC)c2)cc1`, the GI50 was 0.824 µM (active) in [1]; 2.32 µM (inactive) in experiment [15]; 0.0191 µM (active) in experiment [2]; 0.0248 µM (active) in [3]; < 0.01 µM (active) in experiment [4]; 0.014 µM (active) in [5]. In addition, the GI50 in [16] was 0.0438 µM (active); in [6], < 0.0226 µM (active); in experiment [17] it was < 0.01 µM (active); in experiment [18], < 0.01 µM (active); in [7], 0.02 µM (active); in experiment [19], 0.043 µM (active). The GI50 in [8] is 0.0205 µM (active); in experiment [9] it was 0.183 µM (active); in experiment [10], 0.0236 µM (active); in experiment [11] it was 0.114 µM (active); in experiment [12], 0.0169 µM (active); in experiment [13], < 0.01 µM (active). For the same molecule, in experiment [14], the GI50 is 1.95 µM (inactive).
